Results published in patent US10227331B2 (priority 2015, dated 2019).

What was measured:
[1] = tested on: P. aeruginosa expressing IMP-1, efflux− (MB9799); assay: Efflux: concentration of MBL inhibitor which restores susceptibility to imipenem; type: cell-based, Pseudomonas aeruginosa; conditions: imipenem at 2 μg/mL, in the presence of a class A, C, D serine β-lactamase inhibitor closely related to relebactam
Source text: (§1) The strain background is Pseudomonas aeruginosa PAO1.

[2] = molecular target: NDM-1 (Klebsiella pneumoniae, UniProt C7C422); assay: biochemical; type: biochemical; conditions: CCF2-FA substrate, 2 hours at 25° C; read-out: NDM-1 IC50
Outline: (§2)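 Fluorescence assay of metallo-β-lactamase activity using CCF2-FA, a cephalosporin-linked 7-hydroxycoumarin–fluorescein substrate. Inhibitor, enzyme and substrate were incubated together for 2 hours at 25° C. IC50 came from a 4-parameter fit of inhibition versus inhibitor concentration.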

[3] = molecular target: IMP-1 (Serratia marcescens, UniProt P52699); assay: biochemical; type: biochemical; conditions: CCF2-FA substrate, 2 hours at 25° C; read-out: IMP-1 IC50
Outline: as §2

[4] = molecular target: VIM-1 (Pseudomonas aeruginosa (strain ATCC 15692 / DSM 22644 / CIP 104116 / JCM 14847 / LMG 12228 / 1C / PRS 101 / PAO1), UniProt A0A0F7KYQ8); assay: biochemical; conditions: CCF2-FA substrate, 2 hours at 25° C
Outline: as §2

[5] = tested on: P. aeruginosa expressing IMP-1, efflux+ (MB9798); type: cell-based, Pseudomonas aeruginosa; conditions: for P. aeruginosa expressing IMP-1, efflux+ (MB9798) MITC95: imipenem at 2 μg/mL, in the presence of a class A, C, D serine β-lactamase inhibitor closely related to relebactam; for Efflux ratio: ratio MITC95 PA_9798/MITC95 PA_9799
Source text: as §1

[6] = tested on: Escherichia coli expressing NDM-1 (CLB30005, CLB30016); type: cell-based; conditions: with imipenem 1 μg/ml; 95% inhibition of bacterial growth
Outline: (§3)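 Clinical strains grown overnight on blood agar, then diluted 1:100 in 1.1× CAMHB and exposed to test compound with imipenem at 1 μg/ml. Incubation was 22–24 h at 35° C; growth was read by absorbance to find the compound concentration restoring imipenem susceptibility.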

[7] = tested on: Klebsiella pneumoniae expressing VIM-1 (IHMA599644); type: cell-based; conditions: with imipenem 1 μg/ml; 95% inhibition of bacterial growth
Outline: as §3

[8] = tested on: Serratia marcescens expressing IMP-1 (CL5741); type: cell-based; conditions: with imipenem 1 μg/ml; 95% inhibition of bacterial growth
Outline: as §3

IMP-1, sequence (P52699 whole entry, looked up, species assumed): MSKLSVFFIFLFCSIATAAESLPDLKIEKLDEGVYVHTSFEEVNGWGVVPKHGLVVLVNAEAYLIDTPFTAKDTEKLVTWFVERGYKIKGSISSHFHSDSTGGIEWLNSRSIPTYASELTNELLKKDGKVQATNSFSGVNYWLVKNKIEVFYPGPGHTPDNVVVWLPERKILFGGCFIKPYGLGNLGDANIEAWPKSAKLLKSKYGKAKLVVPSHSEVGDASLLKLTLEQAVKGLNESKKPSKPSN
NDM-1, sequence (C7C422 whole entry, looked up, species assumed): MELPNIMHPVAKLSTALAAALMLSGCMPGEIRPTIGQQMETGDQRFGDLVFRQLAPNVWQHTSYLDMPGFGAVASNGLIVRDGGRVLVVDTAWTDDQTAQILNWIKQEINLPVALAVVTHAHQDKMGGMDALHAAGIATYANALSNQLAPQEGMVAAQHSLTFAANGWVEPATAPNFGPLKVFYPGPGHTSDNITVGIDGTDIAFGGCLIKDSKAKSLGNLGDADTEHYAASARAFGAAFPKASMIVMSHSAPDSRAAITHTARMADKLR

Structure (SMILES)	P. aeruginosa expressing IMP-1, efflux− (MB9799) MITC95 [1]	IC50 [2]	IC50 [3]	IC50 [4]	P. aeruginosa expressing IMP-1, efflux+ (MB9798) MITC95 [5]	Efflux ratio [5]	Escherichia coli expressing NDM-1 (CLB30016) MITC95 [6]	Klebsiella pneumoniae expressing VIM-1 (IHMA599644) MITC95 [7]	Serratia marcescens expressing IMP-1 (CL5741) MITC95 [8]
NS(=O)(=O)c1c(S(=O)(=O)C2CNC2)ccc(-c2cccn3cncc23)c1-c1nnn[nH]1 [Example 60, 6-(azetidin-3-ylsulfonyl)-3-(imidazo[1,5-a]pyridin-8-yl)-2-(1H-tetrazol-5-yl)benzenesulfonamide]	3.125 µM	811 pM	2350 pM	408 pM	12.5 µM	4.00	1.563 µM	6.25 µM	3.125 µM
NS(=O)(=O)c1c(S(=O)(=O)C2CNC2)ccc(-c2cccn3cc(C(=O)O)nc23)c1-c1nnn[nH]1 [Example 61, 8-(4-(Azetidin-3-ylsulfonyl)-3-sulfamoyl-2-(1H-tetrazol-5-yl)phenyl)imidazo[1,2-a]pyridine-2-carboxylic Acid]	12.5 µM	254 pM	2220 pM	678 pM	12.5 µM	1.00	12.5 µM	25 µM	6.25 µM
N=C(N)c1nc2c(-c3ccc(S(=O)(=O)C4CNC4)c(S(N)(=O)=O)c3-c3nnn[nH]3)cccc2s1 [Example 62, 4-(4-(Azetidin-3-ylsulfonyl)-3-sulfamoyl-2-(1H-tetrazol-5-yl)phenyl)benzo[d]thiazole-2-carboximidamide]	0.7813 µM	346 pM	2630 pM	396 pM	1.563 µM	2.00	0.3906 µM	1.563 µM	1.563 µM
NS(=O)(=O)c1c(SC2CNC2)ccc(-c2cccc3nccn23)c1-c1nnn[nH]1 [Example 63, 6-(Azetidin-3-ylthio)-3-(imidazo[1,2-a]pyridin-5-yl)-2-(1H-tetrazol-5-yl)benzenesulfonamide]	1.781 µM	5910 pM	125000 pM	30500 pM	50 µM	28.07	1 µM	3.125 µM	3.125 µM
NCCS(=O)(=O)c1ccc(-c2cccn3ccnc23)c(-c2nnn[nH]2)c1S(N)(=O)=O [Example 64, 6-((2-Aminoethyl)sulfonyl)-3-(imidazo[1,2-a]pyridin-8-yl)-2-(1H-tetrazol-5-yl)benzenesulfonamide]	1.563 µM	1060 pM	359 pM	339 pM	1.563 µM	1.00	1.563 µM	3.125 µM	1.563 µM
Nc1cn2cccc(-c3ccc(S(=O)(=O)C4CNC4)c(S(N)(=O)=O)c3-c3nnn[nH]3)c2n1 [Example 65, 3-(2-Aminoimidazo[1,2-a]pyridin-8-yl)-6-(azetidin-3-ylsulfonyl)-2-(H-tetraazol-5-yl)benzenesulfonamide]	6.25 µM	784 pM	2500 pM	627 pM	25 µM	4.00	1.563 µM	12.5 µM	6.25 µM
NS(=O)(=O)c1c(S(=O)(=O)C2CNC2)ccc(-c2cccc3nccn23)c1-c1nnn[nH]1 [Example 66, 6-(Azetidin-3-ylsulfonyl)-3-(imidazo[1,2-a]pyridin-5-yl)-2-(1H-tetrazol-5-yl)benzenesulfonamide]	6.25 µM	591 pM	9670 pM	569 pM	50 µM	8.00	3.125 µM	12.5 µM	6.25 µM
NC(=O)c1ccc(-c2ccc(S(=O)(=O)C3CNC3)c(S(N)(=O)=O)c2-c2nnn[nH]2)c(N)n1 [Example 67, 6-Amino-5-(4-(azetidin-3-ylsulfonyl)-3-sulfamoyl-2-(1H-tetrazol-5-yl)phenyl)picolinamide]	1.563 µM	376 pM	1320 pM	333 pM	3.125 µM	2.00	1.563 µM	3.125 µM	3.125 µM
NS(=O)(=O)c1c(S(=O)(=O)C2CNC2)ccc(-c2cccc3sc(C(=O)O)nc23)c1-c1nnn[nH]1 [Example 68, 4-(4-(azetidin-3-ylsulfonyl)-3-sulfamoyl-2-(1H-tetrazol-5-yl)phenyl)benzo[d]thiazole-2-carboxylic Acid]	3.125 µM	70.9 pM	356 pM	256 pM	6.25 µM	2.00	6.25 µM	12.5 µM	6.25 µM
NCCS(=O)(=O)c1ccc(-c2ccc3[nH]c(N)nc3c2)c(-c2nn[nH]n2)c1S(N)(=O)=O [Example 69, 3-(2-amino-1H-benzo[d]imidazol-5-yl)-6-(2-aminoethylsulfonyl)-2-(2H-tetrazol-5-yl)benzenesulfonamide]	0.4453 µM	1250 pM	2770 pM	485 pM	3.125 µM	7.02	0.25 µM	0.8906 µM	0.4453 µM
NCCS(=O)(=O)c1ccc(-c2cccc3nc(N)[nH]c23)c(-c2nn[nH]n2)c1S(N)(=O)=O [Example 70, 3-(2-amino-3H-benzo[d]imidazol-4-yl)-6-(2-aminoethylsulfonyl)-2-(2H-tetrazol-5-yl)benzenesulfonamide]	0.4453 µM	251 pM	796 pM	370 pM	0.4453 µM	1.00	0.25 µM	0.8906 µM	0.6406 µM
